Results reported in US20160038485A1, “PHASE 2 INDUCERS AND RELATED SIGNALING PATHWAYS PROTECT CARTILAGE AGAINST INFLAMMATION, APOPTOSIS AND STRESS” (THE JOHNS HOPKINS UNIVERSITY, priority 2006, published 2016).

System: phase 2 genes
Assay: not given
Details: cited from earlier work

| SMILES | CD [µM] |
| --- | --- |
| CS(=O)(=O)[C@H]1CC[C@@H](N=C=S)CC1 [GHF 1073] | 0.44 |
| CSCCCCCN=C=S [GHP 1001] | 1.71 |
| C[S+]([O-])CCCCCN=C=S (stereo not drawn) [GHP 1002] | 0.94 |
| CS(=O)(=O)CCCCCN=C=S [GHP 1003] | 0.98 |
| C[S+]([O-])CCCCN=C=S (stereo not drawn) [GHP 1005] | 0.20 |
| CS(=O)(=O)CCCCN=C=S [GHP 1007] | 0.82 |
| CSCCCN=C=S [GHP 1008] | 3.52 |
| C[S+]([O-])CCCN=C=S (stereo not drawn) [GHP 1009] | 2.36 |
| CS(=O)(=O)CCCN=C=S [GHP 1010] | 1.32 |
| CSCc1ccccc1CN=C=S [GHP 1021] | 4.3 |
| CSc1ccccc1CCN=C=S [GHP 1022] | 7.4 |
| CSCCc1ccccc1N=C=S [GHP 1023] | 100 |
| COc1ccccc1N=C=S [GHP 1031] | 100 |
| S=C=Nc1ccccc1Cl [GHP 1032] | 100 |
| O=CNc1ccc(N=C=S)cc1 [GHP 1033] | 100 |
| COc1ccccc1CN=C=S [GHP 1041] | 2.41 |
| COc1cccc(CN=C=S)c1 [GHP 1042] | 8.65 |
| COc1ccc(CN=C=S)cc1 [GHP 1043] | 25 |
| COc1cccc(OC)c1CN=C=S [GHP 1044] | 5.8 |
| CN(C)c1ccccc1CN=C=S [GHP 1045] | 12.5 |
| CSc1ccccc1CN=C=S [GHP 1046] | 6.8 |
| Fc1ccccc1CN=C=S [GHP 1047] | 13.1 |
| S=C=NCc1ccccc1Cl [GHP 1048] | 14.1 |
| S=C=NCc1ccccc1Br [GHP 1049] | 12.5 |
| Cc1ccccc1CN=C=S [GHP 1050] | 3.7 |
| CCOc1ccccc1CN=C=S [GHP 1051] | 2.5 |

| SMILES | CD [µM] |
| --- | --- |
| S=C=NC1CCc2ccccc21 (stereo not drawn) [GHP 1052] | 38.9 |
| CCc1ccccc1CN=C=S [GHP 1053] | 12.5 |
| CCOC(=O)CN=C=S [GHP 1061] | 8.2 |
| CS(=O)(=O)C1CC2CC1CC2N=C=S (stereo not drawn) [GHP 1064] | 0.66 |
| CC(=O)C1CC2CC(N=C=S)C1C2 (stereo not drawn) [GHP 1066] | 0.26 |
| CC(=O)C1CC2CC1CC2N=C=S (stereo not drawn) [GHP 1067] | 0.43 |
| CS(=O)(=O)C1CC2CC(N=C=S)C1C2 (stereo not drawn) [GHP 1068] | 0.15 |
| COC(=O)C1CC2CC(N=C=S)C1C2 (stereo not drawn) [GHP 1069] | 0.68 |
| COC(=O)C1CC2CC(N=C=S)C1C2 (stereo not drawn) [GHP 1070] | 1.6 |
| N#CC1CC2CC1CC2N=C=S (stereo not drawn) [GHP 1071] | 0.59 |
| O=[N+]([O-])C1CC2CC1CC2N=C=S (stereo not drawn) [GHP 1072] | 1.05 |
| CCOC(=O)C(CCSC)N=C=S (stereo not drawn) [GHP 1074] | 2.64 |
| CC(O)C1CC2CC1CC2N=C=S (stereo not drawn) [GHP 1075] | 0.45 |
| OC1CC2CC(N=C=S)C1C2 (stereo not drawn) [GHP 1076] | 1.10 |
| OC1CC2CC1CC2N=C=S (stereo not drawn) [GHP 1077] | 1.85 |
| CP(C)(=O)CCCCN=C=S [GHP 1078] | 0.43 |
| CS(=O)(=O)[C@H]1CCC[C@H](CN=C=S)C1 [GHP 1079] | 0.48 |
| CS(=O)(=O)[C@H]1CCC[C@@H](CN=C=S)C1 [GHP 1080] | 0.41 |
| CCCCC(=O)CCCCN=C=S [GHP 1081] | 2.0 |
| N#CCCCCN=C=S [GHP 1101] | 1.97 |
| COC(=O)CCCCN=C=S [GHP 1102] | 2.81 |
| O=C(O)CCCCN=C=S [GHP 1103] | 2.19 |
| CSC(=O)CCCCN=C=S [GHP 1104] | 2.8 |
| CC(=O)CCCCN=C=S [GHP 1105] | 0.23 |
| CC(O)CCCCN=C=S (stereo not drawn) [GHP 1106] | 0.35 |

System: T/C28a2 chondrocytic cells
Assay: DNA microarray analysis of shear-induced mRNA response of chondrocytes
Format: cell-based, human
Details: Wy14643 10 μM; 20 dyn/cm^2, 48 hours; cDNA microarray
Description: (§1) Cell Culture and Shear Stress Exposure: Human T/C28a2 chondrocytic cells were grown (37° C., 5% CO2) in 1:1 Ham's F-12/DMEM (Biowhittaker) supplemented with 10% FBS. Prior to shear exposure, T/C28a2 cells were incubated for 24 hours in serum-free medium containing 1% Nutridoma-SP (Roche), a low-protein serum replacement that maintains chondrocyte phenotype. Primary HUVECs were cultured as described (Goldring, M. B., 2004). T/C28a2 cells were exposed to shear stress in media containing 1% Nutridoma by use of a parallel-plate flow chamber with a recirculating flow loop (37° C., 5% CO2) (10). HUVECs were treated similarly by circulating media supplemented with 10% FBS.
Microarray Hybridization and Analysis: Cy-3- and Cy-5-labeled probes were mixed, dried, resuspended in hybridization buffer (50% formamide, 10×SSC, 0.2% SDS, COT-I DNA, Poly(A)-DNA), and denatured. The probes were added to microarray slides printed with a set of 32,448 or 39,936 expressed sequence tags (ESTs), allowed to hybridize at 42° C. overnight, and processed as described (Abulencia, J. P., et al. 2003. Hegde, P. et al. 2000). Expression ratios were derived using TIGR Spotfinder (Abulencia, J. P. et al. 2003, Hegde, P. et al. 2000). Differentially expressed genes were identified by Significance Analysis of Microarrays, and analyzed with the software TMEV (Abulencia, J. P. et al. 2003).
(§2) Quantitative Real-Time PCR (qRT-PCR) was used to verify DNA microarray data. Incorporation of SYBR Green into PCR products was monitored with the 7900HT detection system.

| SMILES | shear-mediated up-regulation of JNK2 mRNA levels | shear-mediated up-regulation of c-Jun mRNA levels |
| --- | --- | --- |
| Cc1cccc(Nc2cc(Cl)nc(SCC(=O)O)n2)c1C [Wy14643] | nearly abrogates | nearly abrogates |

System: ARE-driven NQO1 promoter
Assay: Promoter activity assay (pNQO1/ARE-luc)
Format: cell-based, human
Details: transfected T/C28a2 cells; SFN 1.25 μM or D3T 5 μM, 24 h, static conditions
Description: Transient Transfection and Plasmid Constructs: T/C28a2 cells were transfected with 10 μg of plasmid and 2 μg of control with Lipofectamine and Plus Reagent (Invitrogen). Cells were allowed to recover for 3 hours, incubated overnight in medium containing 1% Nutridoma, and exposed to the indicated treatments. Efficiency was assessed by flow cytometry with pEGFP-N2 (BD Biosciences). pCMV-mNrf2 and pNQO1/ARE-luc constructs were provided by N. Wakabayashi (Wakabayashi, N. et al. 2004). Igarashi, K., et al. 1994), and pBJ M-pl 10*-myc, pBJ M<<pl 10-UR, and pCG pi 10 wt constructs were provided by A. Kippel (Hu, Q., et al. 1995).
Promoter Activity Assay: T/C28a2 cells were transfected with 10 μg of pNQO1/ARE-luc and 1 μg each of pEGFP-N2 and pSV40-hRL2 (Promega) to normalize transfection efficiency. Firefly and Renilla luciferase activities were measured using the Dual-Luciferase Report Assay kit (Promega).

| SMILES | ARE-driven NQO1 promoter luciferase activity |
| --- | --- |
| C[S@@+]([O-])CCCCN=C=S [SFN, (−)-1-isothiocyanato-4(R)-(methylsulfinyl)-butane] | increases the luciferase activity |

System: NQO1
Assay: NQO1 enzyme activity in shear-activated chondrocytes
Format: cell-based, human
Details: T/C28a2, high shear (20 dyn/cm^2); SFN 1.25 μM, D3T 5 μM, CAY10404 6.75 μM, NS398 30 μM
Description: as §1
(§3) Cell Viability, NQO1 activity, Glutathione levels, and Prostaglandin (PG)E2 production: Cell viability was monitored with the MTT assay (Gao, X. et al. 2001). NQO1 activity and total GSH (oxidized and reduced) levels of cell lysates were determined in 96-well microtiter plates. PGE2 levels were determined in media by the Prostaglandin E2 monoclonal EIA kit (Cayman Chemical).

| SMILES | shear-induced suppression of NQO1 activity |
| --- | --- |
| CS(=O)(=O)c1ccc(-c2noc(C(F)(F)F)c2-c2ccccc2)cc1 [CAY10404] | reduced the shear-induced down-regulation |
| CS(=O)(=O)Nc1ccc([N+](=O)[O-])cc1OC1CCCCC1 [NS398] | indistinguishable from those with CAY10404 |
| C[S@@+]([O-])CCCCN=C=S [SFN, (−)-1-isothiocyanato-4(R)-(methylsulfinyl)-butane] | abolished |

System: T/C28a2 cells
Assay: Total glutathione (GSH) levels in shear-activated chondrocytes
Format: cell-based, human
Details: T/C28a2, high shear (20 dyn/cm^2); SFN 1.25 μM, CAY10404 6.75 μM, NS398 30 μM
Description: as §1, §3

| SMILES | shear-induced suppression of intracellular GSH levels |
| --- | --- |
| CS(=O)(=O)c1ccc(-c2noc(C(F)(F)F)c2-c2ccccc2)cc1 [CAY10404] | reduced the shear-induced down-regulation |
| CS(=O)(=O)Nc1ccc([N+](=O)[O-])cc1OC1CCCCC1 [NS398] | indistinguishable from those with CAY10404 |
| C[S@@+]([O-])CCCCN=C=S [SFN, (−)-1-isothiocyanato-4(R)-(methylsulfinyl)-butane] | abolished |

System: T/C-28a2 cells
Assay: qRT-PCR transcript ratios (shear/static) in chondrocytes
Format: cell-based, human
Details: Wy14643 10 μM pre-treatment; 20 dyn/cm^2, 48 h; mean + range (n = 2)
Description: as §1, §2
Cell Culture and shear stress exposure, microarray hybridization and analysis and quantitative real-time PCR (qRT-PCR) were carried out as in example 1. T/C-28a2 chondrocytes were pre-treated with a specific PPARα ligand, Wy14643 (10 μM) for 2 hours before being subjected to a shear stress level of 20 dyn/cm^2 for 48 hours in the presence of Wy14643. This pharmacological intervention abolished the shear-induced down regulation of the mRNA levels of Nrf2 and phase 2 genes and apoptosis as evidenced by the abrogation of shear-mediated changes of Bcl-w and pro-caspase-9 mRNA expression.

| SMILES | Bcl-w (Bcl-2-like protein 2) qRT-PCR Transcript Ratio (Shear/Static) | COX-2 (cyclooxygenase-2) qRT-PCR Transcript Ratio (Shear/Static) | Caspase-9 precursor qRT-PCR Transcript Ratio (Shear/Static) | GCLR (glutamate-cysteine ligase) qRT-PCR Transcript Ratio (Shear/Static) | GST μ1 (glutathione-S-transferase class μ1) qRT-PCR Transcript Ratio (Shear/Static) | MMP-9 (matrix metalloproteinase-9) qRT-PCR Transcript Ratio (Shear/Static) | NQO1 (NAD(P)H:quinone oxidoreductase-1) qRT-PCR Transcript Ratio (Shear/Static) | Nrf2 (NF-E2 related factor 2) qRT-PCR Transcript Ratio (Shear/Static) | PGE2 Receptor Subtype EP4 qRT-PCR Transcript Ratio (Shear/Static) | PPARα qRT-PCR Transcript Ratio (Shear/Static) |
| --- | --- | --- | --- | --- | --- | --- | --- | --- | --- | --- |
| Cc1cccc(Nc2cc(Cl)nc(SCC(=O)O)n2)c1C [Wy14643] | 1.0 ± 0.1 | 1.3 ± 0.2 | 1.0 ± 0.1 | 1.2 ± 0.2 | 1.3 ± 0.2 | 1.3 ± 0.1 | 1.0 ± 0.1 | 1.6 ± 0.1 | 0.6 ± 0.1 | 1.1 ± 0.2 |

Same assay, conditions: Wy14643 10 μM pre-treatment; 20 dyn/cm^2, 48 h; mean + range (n = 2)

| SMILES | iNOS (inducible Nitric Oxide Synthase II) qRT-PCR Transcript Ratio (Shear/Static) |
| --- | --- |
| Cc1cccc(Nc2cc(Cl)nc(SCC(=O)O)n2)c1C [Wy14643] | 1.0 ± 0.2 |

Same assay, conditions: Wy14643 10 μM, 2 hours before and during 20 dyn/cm^2, 48 hours

| SMILES | shear-induced down regulation of the mRNA levels of Nrf2 and phase 2 genes |
| --- | --- |
| Cc1cccc(Nc2cc(Cl)nc(SCC(=O)O)n2)c1C [Wy14643] | abolished |

Same assay, conditions: Wy14643 10 μM; 20 dyn/cm^2, 48 hours

| SMILES | shear-mediated changes of Bcl-w and pro-caspase-9 mRNA expression (apoptosis) |
| --- | --- |
| Cc1cccc(Nc2cc(Cl)nc(SCC(=O)O)n2)c1C [Wy14643] | abrogation |

System: T/C28a2 cells
Assay: Shear-induced apoptosis: DNA fragmentation (TUNEL) and mitochondrial membrane depolarization
Format: cell-based, human
Details: 20 dyn/cm^2, 48 h; D3T 5 μM, CAY10404 6.75 μM, NS398 30 μM
Description: as §1
DNA Fragmentation and Mitochondrial Depolarization: For DNA fragmentation, cells were fixed in 4% paraformaldehyde for 1 hour at 25° C., washed 2× in PBS, and permeabilized briefly in 0.1% Triton-X100/0.1% sodium citrate on ice. Subsequently, cells were washed 2× in PBS, labeled using the In Situ Cell Death Kit (Roche), and analyzed by flow cytometry. To quantify Mitochondrial Membrane Potential (MMP), cells were labeled using the MitoProbe JC-I Kit (Molecular Probes).

| SMILES | shear-induced apoptosis (DNA fragmentation TUNEL, mitochondrial membrane depolarization MMP) |
| --- | --- |
| CS(=O)(=O)c1ccc(-c2noc(C(F)(F)F)c2-c2ccccc2)cc1 [CAY10404] | marked reduction |
| CS(=O)(=O)Nc1ccc([N+](=O)[O-])cc1OC1CCCCC1 [NS398] | marked reduction |
